Measurements reported in PMC6271590, “Phenoxyacetohydrazide Schiff Bases: β-Glucuronidase Inhibitors” (Molecules, 2014).
“And” between values parts separate entries of the source, which are not always exact repeats. Identical values can stand only once.

Target: T1, β-Glucuronidase (E.C. 3.2.1.31 from bovine liver) (Bos taurus, UniProt A3KMY8)
T1 construct: β-Glucuronidase (E.C. 3.2.1.31 from bovine liver, G-0251); purchased Sigma Chemical Co. (St. Louis, MO, USA) G-0251; host or cells: bovine liver (tissue-derived preparation)
T1 sequence (A3KMY8 1-652): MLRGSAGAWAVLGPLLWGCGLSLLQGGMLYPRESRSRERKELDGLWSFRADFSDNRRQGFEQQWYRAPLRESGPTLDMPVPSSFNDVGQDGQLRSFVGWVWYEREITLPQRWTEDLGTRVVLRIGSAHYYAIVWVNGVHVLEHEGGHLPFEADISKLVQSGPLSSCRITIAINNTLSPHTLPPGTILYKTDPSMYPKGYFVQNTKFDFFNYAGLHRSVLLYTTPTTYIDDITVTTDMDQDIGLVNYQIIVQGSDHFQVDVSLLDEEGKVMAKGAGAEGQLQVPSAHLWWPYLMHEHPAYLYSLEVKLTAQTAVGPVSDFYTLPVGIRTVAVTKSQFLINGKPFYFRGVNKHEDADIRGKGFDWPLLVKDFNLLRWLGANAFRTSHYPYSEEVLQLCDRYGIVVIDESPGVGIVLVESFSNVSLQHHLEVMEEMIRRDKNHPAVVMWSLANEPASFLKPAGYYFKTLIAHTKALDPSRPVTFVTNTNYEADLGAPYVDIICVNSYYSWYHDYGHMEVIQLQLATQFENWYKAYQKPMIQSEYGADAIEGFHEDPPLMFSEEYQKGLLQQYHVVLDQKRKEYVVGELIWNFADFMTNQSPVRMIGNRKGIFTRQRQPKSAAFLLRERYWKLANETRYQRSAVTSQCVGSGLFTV
Assay: In vitro β-glucuronidase inhibition assay (p-nitrophenyl-β-D-glucuronide, absorbance at 405 nm)
Assay type: biochemical
Details: for IC50: bovine liver enzyme, substrate p-nitrophenyl-β-D-glucuronide, 37 °C, 30 min, triplicate, ± SEM, NA = Not active; for β-glucuronidase inhibitory activity in words: qualitative statement
Experimental: Synthetic acyl hydrazides Schiff bases 1–28 were screened for their in vitro potential as β-glucoronidase inhibitors. The in vitro β-glucornidase inhibitory potential was evaluated by using the literature protocol.
β-Glucuronidase (E.C. 3.2.1.31 from bovine liver, G-0251) and p-nitrophenyl-β-D-glucuronide (N-1627) were purchased From Sigma Chemical Co. (St. Louis, MO, USA). Anhydrous Na2CO3 and all other reagents of standard grade were obtained from E. Merck. The anhydrous EtOH and CHCl3 used in the experiments were dried employing the standard methods. All other solvents and reagents like the benzoyl chloride were of standard grade.
β-D-Glucuronidase inhibition was determined by measuring the absorbance of the p-nitrophenol which is produce from the substrate at 405 nm. The total reaction volume was 250 µL. The reaction mixture contains 5 µL of test compound solution, 185 µL of 0.1 M acetate buffer, and 10 µL of enzyme, and it was incubated at 37 °C for 30 min. The plates were read on a multiplate reader at 405 nm after the addition of 50 µL of 0.4 mM p-nitrophenyl-β-D-glucuronide. All assays were performed in triplicate.

| IC50 | activity relative to the standard D-saccharic acid-1,4-lactone (fold better than standard by IC50) | β-glucuronidase inhibitory activity in words | SMILES |
| --- | --- | --- | --- |
| 9.2 ± 0.32 µM | fivefold better than the standard | excellent activity | COc1ccccc1C=CC=NNC(=O)COc1ccc(Cl)cc1C [Compound 1] |
| – | – | inactive | COc1ccc(C=CC=NNC(=O)COc2ccc(Cl)cc2C)cc1 [Compound 2] |
| 9.47 ± 0.16 µM | – | excellent activity | Cc1cc(Cl)ccc1OCC(=O)NN=Cc1ccccc1[N+](=O)[O-] [Compound 5, 2-(4-Chloro-2-methylphenoxy)-N'-[(2-nitrophenyl)methylidene]acetohydrazide] |
| 19 µM and 19.6 µM | – | excellent activity | Cc1cc(Cl)ccc1OCC(=O)NN=Cc1ccccc1F [Compound 11, 2-(4-Chloro-2-methylphenoxy)-N'-[-(2-fluorophenyl)methylidene]acetohydrazide] |
| 12 ± 0.16 µM | – | excellent activity | Cc1cc(Cl)ccc1OCC(=O)NN=Cc1cccc(O)c1O [Compound 15, 2-(4-Chloro-2-methylphenoxy)-N'-[-(2,3-dihydroxyphenyl)methylidene]acetohydrazide] |
| – | – | completely inactive | Cc1cc(Cl)ccc1OCC(=O)NN=Cc1cccc(O)c1 [Compound 18, 2-(4-Chloro-2-methylphenoxy)-N'-[(3-hydroxyphenyl)methylidene]acetohydrazide] |
| 13.7 ± 0.4 µM | – | excellent activity | Cc1cc(Cl)ccc1OCC(=O)NN=Cc1cccc2ccccc12 [Compound 21, 2-(4-Chloro-2-methylphenoxy)-N'-[-1-naphthylmethylidene]acetohydrazide] |
| 22 ± 0.14 µM | – | excellent activity | Cc1cc(Cl)ccc1OCC(=O)NN=Cc1ccc2ccccc2c1 [Compound 22, 2-(4-Chloro-2-methylphenoxy)-N'-[-2-naphthylmethylidene]acetohydrazide] |

The remaining lines, values behind:

| SMILES | IC50 | activity relative to the standard D-saccharic acid-1,4-lactone (fold better than standard by IC50) | β-glucuronidase inhibitory activity in words |
| --- | --- | --- | --- |
| Cc1cc(Cl)ccc1OCC(=O)NN=Cc1cccc([N+](=O)[O-])c1 [Compound 6, 2-(4-Chloro-2-methylphenoxy)-N'-[(3-nitrophenyl)methylidene]acetohydrazide] | – | – | inactivity |
| Cc1cc(Cl)ccc1OCC(=O)NN=Cc1ccc(Cl)cc1 [Compound 7, 2-(4-Chloro-2-methylphenoxy)-N'-[-(4-chlorophenyl)methylidene]acetohydrazide] | 14.7 ± 0.19 µM | – | excellent activity |
| Cc1cc(Cl)ccc1OCC(=O)NN=Cc1ccc(Cl)c(Cl)c1 [Compound 9, 2-(4-Chloro-2-methylphenoxy)-N'-[(3,4-dichlorophenyl)methylidene]acetohydrazide] | – | – | completely inactive |
| Cc1cc(Cl)ccc1OCC(=O)NN=Cc1c(Cl)cccc1Cl [Compound 10, 2-(4-Chloro-2-methylphenoxy)-N'-[(2,6-dichlorophenyl)methylidene]acetohydrazide] | – | – | completely inactive |
| Cc1cc(Cl)ccc1OCC(=O)NN=Cc1ccsc1 [Compound 12, 2-(4-Chloro-2-methylphenoxy)-N'-[3-thienylmethylidene]acetohydrazide] | 30.7 ± 1.49 µM | – | excellent activity |
| Cc1cc(Cl)ccc1OCC(=O)NN=Cc1ccco1 [Compound 13, 2-(4-Chloro-2-methylphenoxy)-N'-[-2-furylmethylidene]acetohydrazide] | – | – | completely inactive |
| Cc1ccc(C=NNC(=O)COc2ccc(Cl)cc2C)o1 [Compound 14, 2-(4-Chloro-2-methylphenoxy)-N'-[-(5-methyl-2-furyl)methylidene]acetohydrazide] | – | – | completely inactive |
| Cc1cc(Cl)ccc1OCC(=O)NN=Cc1ccc(O)c(O)c1 [Compound 16, 2-(4-Chloro-2-methylphenoxy)-N'-[-(3,4-dihydroxyphenyl)methylidene]acetohydrazide] | – | – | completely inactive |
| CC(=NNC(=O)COc1ccc(Cl)cc1C)c1ccc(O)cc1 [Compound 17, 2-(4-Chloro-2-methylphenoxy)-N'-[1-(4-hydroxyphenyl)ethylidene]acetohydrazide] | – | – | completely inactive |
| CC(=NNC(=O)COc1ccc(Cl)cc1C)c1c(O)cc(O)cc1O [Compound 19, 2-(4-Chloro-2-methylphenoxy)-N'-[1-(2,4,6-trihydroxyphenyl)ethylidene]acetohydrazide] | – | – | completely inactive |
| Cc1cc(Cl)ccc1OCC(=O)NN=Cc1ccc(O)cc1 [Compound 20, 2-(4-Chloro-2-methylphenoxy)-N'-[(4-hydroxyphenyl)methylidene]acetohydrazide] | – | – | completely inactive |
